Patent US11795199B2, “Peptide targeting Mycobacterium tuberculosis toxin-antitoxin system and use thereof” (Seoul National University R&DB Foundation, priority 2017, dated 2023)

Assays:
[1] = target: T1, VapBC26 protein complex containing Y51E (Mycobacterium tuberculosis, UniProt O53778, Y51E)
[2] = target: T1, VapBC26 protein complex containing Y51E; remark: listed apart in the source

## DAELAVLRELAG [mimetic peptide for VapC26 α4]
[1]
  fluorescence increase in Y51E: 15.07%
[2]
  calculated area corresponding to VapC26, larger than with the native protein complex: 15.42%
